Reference: ChEMBL document CHEMBL1201862, “PubChem BioAssay data set” (2004)
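Protocol summary: plate cells (96-well), add compound at 5 concentrations, incubate 48 h, interpolate endpoints linearly. At the GI50, growth is halved.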 The source made the active and inactive calls. No stated cut-off is given here; in the data, active = GI50 up to about 1.1 µM and inactive = higher.

Columns and labels:
Assay in all cases: NCI tumour cell line growth inhibition, 48 h
TK-10 = system: TK-10
SR = system: SR
CCRF-CEM = system: CCRF-CEM
HOP-62 = system: HOP-62
SW-620 = system: SW-620
SF-539 = system: SF-539
NCI-H522 = system: NCI-H522
OVCAR-8 = system: OVCAR-8
LOX IMVI = system: LOX IMVI
HT-29 = system: HT-29
HCT-116 = system: HCT-116
SK-MEL-28 = system: SK-MEL-28
SF-295 = system: SF-295
IGROV-1 = system: IGROV-1
SNB-75 = system: SNB-75
COLO 205 = system: COLO 205
EKVX = system: EKVX
CAKI-1 = system: CAKI-1

SMILES | GI50 (TK-10) | GI50 (SR) | GI50 (CCRF-CEM) | GI50 (HOP-62) | GI50 (SW-620) | GI50 (SF-539) | GI50 (NCI-H522) | GI50 (OVCAR-8) | GI50 (LOX IMVI) | GI50 (HT-29) | GI50 (HCT-116) | GI50 (SK-MEL-28) | GI50 (SF-295) | GI50 (IGROV-1) | GI50 (SNB-75) | GI50 (COLO 205) | GI50 (EKVX) | GI50 (CAKI-1)
CC1=C(C(=O)Nc2ccccc2)C(c2cc(Cl)cc(Cl)c2)C(C(=O)Nc2ccccc2)=C(C)N1 | 16.7 µM (inactive) | 2.72 µM (inactive) | 3.02 µM (inactive) | 13.6 µM (inactive) | 8.28 µM (inactive) | 14.8 µM (inactive) | 5.36 µM (inactive) | 10.5 µM (inactive) | 4.79 µM (inactive) | 4.65 µM (inactive) | 9.53 µM (inactive) | 14.2 µM (inactive) | 10.9 µM (inactive) | 16.1 µM (inactive) | 10.8 µM (inactive) | 17 µM (inactive) | 17.4 µM (inactive) | 12.1 µM (inactive)
CC12CCC(CC1)C(C)(C)O2 [EUCALYPTOL] | > 100 µM (inactive) | > 100 µM (inactive) | – | 12.6 µM (inactive) | – | 18.3 µM (inactive) | 10.1 µM (inactive) | 24.4 µM (inactive) | 7.43 µM (inactive) | 59.4 µM (inactive) | – | 62.4 µM (inactive) | 21.5 µM (inactive) | 30.4 µM (inactive) | 39.3 µM (inactive) | 18.6 µM (inactive) | 38 µM (inactive) | –
O=[N+]([O-])c1c(/C=N/Nc2ccccc2)oc(-c2ccc3c(c2)OCO3)c1-c1ccc2c(c1)OCO2 | 19 µM (inactive) | 1.54 µM (inactive) | – | 3.9 µM (inactive) | 11.1 µM (inactive) | 3.16 µM (inactive) | 27 µM (inactive) | 5.56 µM (inactive) | 0.74 µM (active) | 23.8 µM (inactive) | 8.47 µM (inactive) | 23.4 µM (inactive) | 26.9 µM (inactive) | 6.14 µM (inactive) | 23.4 µM (inactive) | 18.2 µM (inactive) | 12.4 µM (inactive) | 8.22 µM (inactive)
COc1ccc(CNc2cnc3cc(N)ccc3n2)cc1 | > 100 µM (inactive) | 55.3 µM (inactive) | 30 µM (inactive) | > 100 µM (inactive) | > 100 µM (inactive) | > 100 µM (inactive) | > 100 µM (inactive) | > 100 µM (inactive) | > 100 µM (inactive) | > 100 µM (inactive) | > 100 µM (inactive) | > 100 µM (inactive) | 94.4 µM (inactive) | > 100 µM (inactive) | 52.6 µM (inactive) | > 100 µM (inactive) | > 100 µM (inactive) | –
Cc1ccccc1-c1c(N)nc(N)nc1C(=O)Nc1nccs1 | > 100 µM (inactive) | > 100 µM (inactive) | > 100 µM (inactive) | > 100 µM (inactive) | > 100 µM (inactive) | > 100 µM (inactive) | > 100 µM (inactive) | > 100 µM (inactive) | > 100 µM (inactive) | > 100 µM (inactive) | > 100 µM (inactive) | > 100 µM (inactive) | > 100 µM (inactive) | > 100 µM (inactive) | > 100 µM (inactive) | > 100 µM (inactive) | > 100 µM (inactive) | > 100 µM (inactive)
c1ccc(C2=NN3CN(N2)c2ccccc2OCCCOc2ccccc23)cc1 | > 100 µM (inactive) | 92.7 µM (inactive) | > 100 µM (inactive) | > 100 µM (inactive) | > 100 µM (inactive) | > 100 µM (inactive) | 34.7 µM (inactive) | > 100 µM (inactive) | > 100 µM (inactive) | > 100 µM (inactive) | > 100 µM (inactive) | > 100 µM (inactive) | > 100 µM (inactive) | > 100 µM (inactive) | 88.5 µM (inactive) | > 100 µM (inactive) | > 100 µM (inactive) | –
